Experimental data reported in patent US9827315B2, “Compositions of pharmaceutical actives containing diethylene glycol monoethyl ether or other alkyl derivatives” (THEMIS MEDICARE LIMITED, priority 2013, dated 2017).
In brackets after ≈: the same amount, converted by molar mass. Read-outs that look alike come from different tables or passages of the source.

Assays:
[1] = cited from earlier work
[2] = cited from earlier work; for half-life: in vivo
[3] = Viscosity of formulations prepared in Diethylene glycol monoethyl ether and of comparators; type: physicochemical; settings: final solution/formulation; marketed comparators
[4] = tested on: Rabbits (New Zealand White); assay: Acute Eye Irritation/Corrosion Test in Rabbits; type: in vivo
Procedure: Acute Eye Irritation/Corrosion Test for Diethylene Glycol Monoethyl Ether (Transcutol HP) in Rabbits • Test Item Transcutol HP • Diluted with: Water for injection • Test System Rabbits (New Zealand White) • Total No. of Animals: 6 animals for initial test • 12 animals for confirmatory test • No. of groups: 6 Study Design:
Initial test is carried out by using one animal per group.
Irrigation was carried out after 24 hrs from the treatment and the animals are again observed for symptoms of toxicity.
Confirmatory test is carried out by using two animals per group.
The dosing methodology and irrigation procedure was same as mentioned in the initial test and the observations were found as follows: […]

[5] = Intramuscular, Intravenous and Intraocular safety studies; settings: in vivo
physchem [6] = settings: organic solvent or mixture, Solubility in Diethylene Glycol Monoethyl Ether
physchem [7] = settings: organic solvent or mixture
Procedure: Progesterone is dissolved in solution of 20% Benzyl alcohol giving a clear solution and add Diethylene glycol monoethyl ether with constant stirring and make the volume up to 100 ml with Diethylene glycol monoethyl ether. […] This solution is filled in 3 ml clear glass vial.

In the case of C[C@]12CC[C@H]3[C@@H](CCC4=CC(=O)CC[C@@]43C)[C@@H]1CC[C@@H]2O [Testosterone], the “Solubility in water (descriptive)” value [1] is given as “practically insoluble” and the half-life [2] is given as 2 to 4 h.

In the case of CC(C)c1cccc(C(C)C)c1O [Propofol, 2,6-diisopropylphenol], the Viscosity [3] is reported as “less than 5 cps”.

For CN1C(C(=O)Nc2ccccn2)=C(O)c2ccccc2S1(=O)=O [Piroxicam, (8E)-8-[hydroxy-(pyridin-2-ylamino)methylidene]-9-methyl-10,10-dioxo-10λ6-thia-9-azabicyclo[4.4.0]deca-1,3,5-trien-7-one], the Viscosity [3] was 3.365 cps.

In the case of CCOCCOCCO [Diethylene glycol monoethyl ether, 2-(2-Ethoxyethoxy)ethanol], the “eye irritation, confirmatory test” value ([4]; 1 hr, first three groups) is reported as “no test item related effects”, the “eye irritation, confirmatory test” value ([4]; 1 hr, group 4 and group 5) is reported as “Mild irritation” and the “eye irritation, confirmatory test” value ([4]; 1 hr, group 6) is reported as “severe irritation”. For the same molecule, the “eye irritation, initial test” value ([4]; 24 hr, all animals except group 6) was “normal”, the “eye irritation, confirmatory test” value ([4]; 24 hr, group 1 to group 3) was “normal” and the “eye irritation, confirmatory test” value ([4]; 24 hr, group 4 and group 5) was “mild irritation including Chemosis, lacrimation and mild pupillary constriction”. For the same molecule, the “eye irritation, confirmatory test” value ([4]; 24 hr, group 6) was “severe irritation”, the “eye irritation, initial test” value ([4]; 24 hr, group 6) was “mild irritation including Chemosis and Lacrimation” and the “ocular toxicity, summary” value ([4]; concentration of 100%, intra occularly) was “irritant but not corrosive”. For the same molecule, the “eye irritation, initial test” value ([4]; first hour, first three groups) was “no test item related effects”, the “eye irritation, initial test” value ([4]; first hour, group 4 and 5) was “Mild irritation” and the “eye irritation, initial test” value ([4]; first hour, group 6) was “moderate irritation”. The “corrosion effect, initial test” value ([4]; rabbit, in vivo) was “no corrosion effect”, the “ocular toxicity, summary” value ([4]; up to 80% of concentration) was “not showing any occular toxicity” and the “safety in Intramuscular, Intravenous and Intraocular studies” value [5] was “safe and non toxic”. The “Solubility in water (descriptive)” value [1] was “soluble”.

In the case of O=C(CCCN1CCC(O)(c2ccc(Cl)cc2)CC1)c1ccc(F)cc1 [Haloperidol, 4-[4-(p-chlorophenyl)-4-hydroxypiperidino]-4′-fluorobutyrophenone], the solubility (physchem [6]) is listed as 8.3 mg/mL (≈ 22.1 mM), the solubility in water [1] is listed as 1.4 mg/100 ml and the “solubility in 0.1 N hydrochloric acid” value ([1]; with heating) is listed as 3 mg/mL (≈ 7.98 mM).

With C[C@]12CC[C@H]3[C@@H](CCC4=CC(=O)CC[C@@]43C)[C@@H]1CC[C@@H]2OC(=O)CCC1CCCC1 [Testosterone Cypionate, androst-4-en-3-one, 17-(3-cyclopentyl-1-oxopropoxy)-, (17β)-] the Viscosity [3] was “less than 7 cps” and the solubility (physchem [6]) was 50 mg/mL (≈ 121 mM).

For CC(=O)[C@H]1CC[C@H]2[C@@H]3CCC4=CC(=O)CC[C@]4(C)[C@H]3CC[C@]12C [Progesterone, pregn-4-ene-3,20-dione], the solubility (physchem [7]) is given as at most 100 mg/mL, the solubility in water ([1]; at 19° C.) is given as under 0.1 g/100 ml and the “Solubility in water (descriptive)” value [1] is given as “insoluble”.

In the case of C[C@H]1O[C@@H](O[C@H]2[C@@H](O)C[C@H](OC3CC[C@@]4(C)[C@H](CC[C@@H]5[C@@H]4C[C@@H](O)[C@]4(C)[C@@H](C6=CC(=O)OC6)CC[C@]54O)C3)O[C@@H]2C)C[C@H](O)C1OC1C[C@H](O)[C@H](O)[C@@H](C)O1 (stereo partly drawn) [Digoxin, (3β, 5β,12β)-3-[(O-2,6-dideoxy-β-D-ribo-hexopyranosyl-(1→4)-O-2,6-dideoxy-β-D-ribo-hexopyranosyl-(1→4)-2,6-dideoxy-β-D-ribo-hexopyranosyl)oxy]-12,14-dihydroxy-card-20(22)-enolide], the half-life [2] is listed as “about 36 hours”.

C[C@@H](c1ncncc1F)[C@](O)(Cn1cncn1)c1ccc(F)cc1F [Voricanozole, (2R,3S)-2-(2,4-difluorophenyl)-3-(5-fluoropyrimidin-4-yl)-1-(1H-1,2,4-triazol-1-yl)butan-2-ol] gave a Viscosity [3] of 2.977 cps.

In the case of CCOC(=O)O[C@]1(C(=O)OCCl)CC[C@H]2[C@@H]3CCC4=CC(=O)C=C[C@]4(C)[C@H]3[C@@H](O)C[C@@]21C [Loteprednol], the solubility (physchem [6]) is given as 25 mg/mL (≈ 53.5 mM) and the solubility in water [1] is given as 8 μg per 1t.

For CC(=O)O[C@H]1C(=O)[C@@]2(C)[C@H]([C@H](OC(=O)c3ccccc3)[C@]3(O)CC(OC(=O)[C@H](O)[C@@H](NC(=O)c4ccccc4)c4ccccc4)C(C)=C1C3(C)C)[C@]1(OC(C)=O)CO[C@@H]1C[C@@H]2O (stereo partly drawn) [Paclitaxel, (2α,4α,5β,7β,10β,13α)-4,10-bis(acetyloxy)-13-{[(2R,3S)-3-(benzoylamino)-2-hydroxy-3-phenylpropanoyl]oxy}-1,7-dihydroxy-9-oxo-5,20-epoxytax-11-en-2-yl benzoate], the solubility (physchem [6]) is listed as 23.8 mg/mL (≈ 27.9 mM) and the “Solubility in water (descriptive)” value [1] is listed as “insoluble”.

In the case of CCCCCCC(=O)O[C@H]1CC[C@H]2C3CCC4=CC(=O)CCC4(C)[C@H]3CCC12C (stereo partly shown) [Testosterone Enanthate, Testosterone enanthate], the solubility (physchem [6]) is listed as 55.5 mg/mL (≈ 139 mM) and the “Solubility in water (descriptive)” value [1] is listed as “insoluble”.

In the case of COc1cc([C@@H]2c3cc4c(cc3[C@@H](O[C@@H]3O[C@@H]5CO[C@@H](C)O[C@H]5[C@H](O)[C@H]3O)[C@H]3COC(=O)[C@H]23)OCO4)cc(OC)c1O [Etoposide, 4′-demethylepipodophyllotoxin 9-[4,6-0-(R)-ethylidene-β-D-glucopyranoside]], the solubility (physchem [6]) is given as 30 mg/mL (≈ 51 mM) and the “Solubility in water (descriptive)” value [1] is given as “sparingly soluble”.

In the case of COCCCOc1ccnc(C[S+]([O-])c2nc3ccccc3[nH]2)c1C (racemic) [Rabeprazole, (RS)-2-([4-(3-methoxypropoxy)-3-methylpyridin-2-yl]methylsulfinyl)-1H-benzo[d]imidazole], the “Solubility in water (descriptive)” value [1] is given as “insoluble” and the bioavailability ([2]; enteric coated tablet) is given as 51%.
